Experimental data from patent publication US4218477A, “Primary aminoacylanilides, methods of making the same and use as antiarrhythmic drugs” (priority 1976, dated 1980).
Where two headings read alike, the source gives them in different places.

Legend:
ventricular fibrillation = experiment: Protection against chloroform induced ventricular fibrillation in mice, oral (Table I); format: in vivo, female Swiss albino mice (HAM/ICR)
Method: (§1) The experiments on mice were performed according to a modification of the method described by J. W. Lawson, "Antiarrhythmic activity of some isoquinoline derivatives determined by a rapid screening procedure in the mouse", J. Pharm. Exp. Therap. Vol. 160, pp. 22-31 (1968). This method is based upon the observation that when an unanesthetized, untreated mouse is exposed to chloroform vapor its respiration soon ceases and at that time both electrocardiographic and visual inspection reveal that the cardiac ventricles are fibrillating. If the mouse is treated appropriately with known antiarrhythmic agents prior to exposure to chloroform, the respiratory failure is not accompanied by ventricular fibrillation.

mice [1] = experiment: Ataxia just before CHCl3 challenge in mice, oral (Table I); format: in vivo, female Swiss albino mice (HAM/ICR)
Method: as §1

ventricular arrhythmias [2] = format: in vivo, dogs; conditions: for Complete Clearing, Duration: return of 50% of suppressed abnormal beats; for Complete Clearing, Onset: abnormal ventricular beats less than 5% of total beats
Method: Vol. 1, pp. 1318-1328 (1950). […] The electrocardiographic, cardiovascular and other drug effects were monitored.
Table II summarizes the results of oral administration:
Dogs #215 and #220 given 50 mg/kg dose at 0 mins and 100 mg/kg dose at 24
The electrocardiographic, cardiovascular and other drug effects were monitored.

ventricular arrhythmias [3] = experiment: animal or person; conditions: for minimal effective dose: Canis lupus familiaris
Method: Tests on dogs with the compound 2-amino-2',6'-propionoxylidide were conducted according to a modification of the method described by A. S. Harris in "Delayed Development of Ventricular Ectopic Rhythms Following Experimental Coronary Occlusions", Circ. Vol. 1, pp. 1318-1328 (1950). In this method the dogs were anesthetized, the heart was exposed, and the anterior descending branch of the left coronary artery was ligated in two stages. The thorax was closed and the dog was allowed to recover from the anesthesia. […] B. B. Clark and J. R. Cummings, "Arrhythmias Following Experimental Coronary Occlusion and Their Response to Drugs", Annals New York Academy of Sciences, Vol. 65, pp. 543-551 (1956). […] The electrocardiographic, cardiovascular and other drug effects were monitored.
The dosage schedule was: 1st hr.: 15 mg/kg/hr; 2nd hr.: 30 mg/kg/hr; 3rd hr.: 60 mg/kg/hr. Infusions were stopped at the first sign of toxicity other than emesis.
The compound 3-amino-2',6'-butyroxylidide was also tested on dogs, according to a modification of the method of Harris as previously described. As in the previously described tests, unanesthetized dogs were supported in canvas slings and were treated either intravenously or orally with doses of 3-amino-2',6'-butyroxylidide. The electrocardiographic, cardiovascular and other drug effects were monitored.

[4] = test system: chloroform induced fibrillation; experiment: Protection against chloroform induced fibrillation in mice, subcutaneous, potency relative to lidocaine (Table IV); format: in vivo; conditions: s.c., 20 min, statistical mean (confidence limits)
Method: as §1
The procedure used was a modification of the method previously described. The modification involved using a standard time of 20 minutes for each test run and four different doses of the same drug. Route of administration was subcutaneous.

frog sciatic nerve = experiment: Local anesthetic effect in vitro on the frog sciatic nerve; conditions: 20 mM, exposure for 96 min
cardiac arrhythmias = experiment: Antiarrhythmic effect in mice, oral (summary statement); format: in vivo
Method: as §1

mice [5] = conditions: mouse, in vivo, po, 1440 min
[6] = test system: chloroform-induced arrhythmias; experiment: animal or person; conditions: Mus musculus
[7] = Acute oral toxicity in mice (24 Hr. mortality); conditions: mouse, in vivo, po
[8] = oral, cumulative dose 100 mg/kg as HCl
[9] = oral, cumulative dose 300 mg/kg as HCl

Structure (SMILES): Cc1cccc(C)c1NC(=O)C(C)N (racemic) [2-amino-2',6'-propionoxylidide]
- Proportion of mice protected against fibrillation at LD0.1 (ventricular fibrillation; dose LD0.1, drug given 20 min before CHCl3 challenge): 9/10
- Proportion of mice protected against fibrillation at LD0.1 (ventricular fibrillation; dose LD0.1, drug given 40 min before CHCl3 challenge): 9/10
- Proportion of mice protected against fibrillation at LD0.1 (ventricular fibrillation; dose LD0.1, drug given 80 min before CHCl3 challenge): 10/10
- Proportion of mice protected against fibrillation at LD0.1 (ventricular fibrillation; dose LD0.1, drug given 160 min before CHCl3 challenge): 9/10
- Proportion of mice having ataxia just before CHCl3 challenge (mice [1]; dose LD0.1, 20 min): 10/10
- Proportion of mice having ataxia just before CHCl3 challenge (mice [1]; dose LD0.1, 40 min): 10/10
- Proportion of mice having ataxia just before CHCl3 challenge (mice [1]; dose LD0.1, 80 min): 8/10
- Proportion of mice having ataxia just before CHCl3 challenge (mice [1]; dose LD0.1, 160 min): 5/10
- adverse reactions (ventricular arrhythmias [2]; dog, in vivo, po): unaccompanied by any discernible adverse reactions
- Overt Toxicity: Convulsions, Onset (ventricular arrhythmias [2]; dog, in vivo, po, 50 mg/kg): None
- Overt Toxicity: Emesis (ventricular arrhythmias [2]; dog, in vivo, po, 50 mg/kg): None
- Overt Toxicity: Nystagmus (ventricular arrhythmias [2]; dog, in vivo, po, 50 mg/kg): None
- Overt Toxicity: Other (ventricular arrhythmias [2]; dog, in vivo, po, 50 mg/kg): None
- Overt Toxicity: Tremors (ventricular arrhythmias [2]; dog, in vivo, po, 50 mg/kg): None
- Overt Toxicity: Convulsions, Onset (ventricular arrhythmias [2]; dog, in vivo, po, 100 mg/kg): None
- Overt Toxicity: Emesis (ventricular arrhythmias [2]; dog, in vivo, po, 100 mg/kg): None
- Overt Toxicity: Nystagmus (ventricular arrhythmias [2]; dog, in vivo, po, 100 mg/kg): None
- Overt Toxicity: Other (ventricular arrhythmias [2]; dog, in vivo, po, 100 mg/kg): None
- Overt Toxicity: Tremors (ventricular arrhythmias [2]; dog, in vivo, po, 100 mg/kg): None
- Overt Toxicity: Convulsions, Onset (ventricular arrhythmias [2]; dog, in vivo, po, 150 mg/kg): None
- Overt Toxicity: Nystagmus (ventricular arrhythmias [2]; dog, in vivo, po, 150 mg/kg): None
- Overt Toxicity: Other (ventricular arrhythmias [2]; dog, in vivo, po, 150 mg/kg): None
- Overt Toxicity: Tremors (ventricular arrhythmias [2]; dog, in vivo, po, 150 mg/kg): None
- Overt Toxicity: Convulsions, Duration (ventricular arrhythmias [2]; dog, in vivo, po, 200 mg/kg): > 3 min
- Overt Toxicity: Nystagmus (ventricular arrhythmias [2]; dog, in vivo, po, 200 mg/kg): None
- Overt Toxicity: Other (ventricular arrhythmias [2]; dog, in vivo, po, 200 mg/kg): None
- Overt Toxicity: Convulsions, Duration (ventricular arrhythmias [2]; dog, in vivo, po, 300 mg/kg): 17 min
- Overt Toxicity: Convulsions, Onset (ventricular arrhythmias [2]; dog, in vivo, po, 300 mg/kg): None
- Overt Toxicity: Emesis (ventricular arrhythmias [2]; dog, in vivo, po, 300 mg/kg): None
- Overt Toxicity: Nystagmus (ventricular arrhythmias [2]; dog, in vivo, po, 300 mg/kg): None
- Overt Toxicity: Other (ventricular arrhythmias [2]; dog, in vivo, po, 300 mg/kg): None
- Overt Toxicity: Tremors (ventricular arrhythmias [2]; dog, in vivo, po, 300 mg/kg): None
- suppression of the ventricular arrhythmias (ventricular arrhythmias [2]; oral doses, dogs): distinct suppression of the ventricular arrhythmias
- Partial Clearing, Onset (ventricular arrhythmias [2]; oral, cumulative dose 50 mg/kg as HCl, 50-95% reduction of abnormal ventricular beats): None
- Complete Clearing, Duration (ventricular arrhythmias [2]; oral, cumulative dose 50 mg/kg as HCl, *** followed by off and on bursts): 195 min
- Complete Clearing, Onset (ventricular arrhythmias [2]; [8]): 120 min
- Complete Clearing, Duration (ventricular arrhythmias [2]; [8]): 45 min
- Complete Clearing, Duration (ventricular arrhythmias [2]; oral, cumulative dose 200 mg/kg as HCl, *** followed by off and on bursts): 30 min
- Complete Clearing, Onset (ventricular arrhythmias [2]; [9]): 30 min
- Complete Clearing, Duration (ventricular arrhythmias [2]; [9]): > 180 min
- minimal effective dose (ventricular arrhythmias [3]; iv, read-out: Antiarrhythmic doses (cumul.)): 75 mg/kg
- minimal effective dose (ventricular arrhythmias [3]; iv, read-out: cumulative dose providing antiarrhythmic effects): 75 mg/kg
- adverse reactions (ventricular arrhythmias [3]; dog, in vivo, iv): unaccompanied by any discernible adverse reactions
- Number of dogs showing antiarrhythmic effect (ventricular arrhythmias [3]; i.v. infusion 15, 30, 60 mg/kg/hr, dogs tested: lidocaine 2, test compound 1, abnormal beats less than 5% of total): 1
- Toxic doses (cumul.) (ventricular arrhythmias [3]; i.v. infusion, stopped at first sign of toxicity other than emesis, one value per dog): 81 mg/kg
- Duration of Antiarrhythmic effect (ventricular arrhythmias [3]; i.v. infusion, return of 50% of suppressed abnormal ventricular beats, one value per dog): 71 min
- suppression of the ventricular arrhythmias (ventricular arrhythmias [3]; intravenous doses, dogs): distinct suppression of the ventricular arrhythmias
- Relative Potency (ED50 test compound/ED50 lidocaine) [4]: 0.33 (0.20 - 0.54)
- block of the action potential of the nerve (frog sciatic nerve): does not block the action potential at all
- maximum oral dosage providing antiarrhythmic effects (cardiac arrhythmias): about 380 mg/kg
- 24 Hr. Mortality LD0.1 (mice [5]): 382 mg/kg
- ED50 [6]: 172 mg/kg
- LD50 at 24 h [7]: 529 mg/kg
